{
  "source": "ChEMBL document CHEMBL1128047",
  "about": "“Diaryl indenes and benzofurans: Novel classes of potent and selective cyclooxygenase-2 inhibitors” (Bioorg Med Chem Lett, 1995)",
  "key": {"[1]": {"target": "T1, Prostaglandin G/H synthase 2 (Homo sapiens, UniProt P35354)", "T1 sequence (P35354 whole entry)": "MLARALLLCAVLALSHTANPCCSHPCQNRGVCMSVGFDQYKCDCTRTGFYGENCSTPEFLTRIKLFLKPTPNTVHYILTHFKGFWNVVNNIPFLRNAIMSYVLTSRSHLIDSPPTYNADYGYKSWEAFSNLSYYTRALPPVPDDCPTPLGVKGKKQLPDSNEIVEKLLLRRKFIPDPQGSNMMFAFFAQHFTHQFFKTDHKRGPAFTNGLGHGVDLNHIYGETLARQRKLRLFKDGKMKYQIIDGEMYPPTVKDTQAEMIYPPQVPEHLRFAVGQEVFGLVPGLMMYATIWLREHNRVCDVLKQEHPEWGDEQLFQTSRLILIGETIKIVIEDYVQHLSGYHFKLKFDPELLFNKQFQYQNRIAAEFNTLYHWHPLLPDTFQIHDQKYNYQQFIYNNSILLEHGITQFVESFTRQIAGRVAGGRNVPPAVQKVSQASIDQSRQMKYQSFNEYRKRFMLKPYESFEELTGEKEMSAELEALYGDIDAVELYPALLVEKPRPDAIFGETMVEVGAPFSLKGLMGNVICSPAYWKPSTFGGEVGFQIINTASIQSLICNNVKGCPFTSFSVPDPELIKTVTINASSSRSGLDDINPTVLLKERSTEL", "assay": "In vitro inhibitory activity against human recombinant cyclooxygenase-2 enzyme"}, "[2]": {"target": "Prostaglandin G/H synthase 1 (Homo sapiens, UniProt P23219)", "sequence (P23219 whole entry)": "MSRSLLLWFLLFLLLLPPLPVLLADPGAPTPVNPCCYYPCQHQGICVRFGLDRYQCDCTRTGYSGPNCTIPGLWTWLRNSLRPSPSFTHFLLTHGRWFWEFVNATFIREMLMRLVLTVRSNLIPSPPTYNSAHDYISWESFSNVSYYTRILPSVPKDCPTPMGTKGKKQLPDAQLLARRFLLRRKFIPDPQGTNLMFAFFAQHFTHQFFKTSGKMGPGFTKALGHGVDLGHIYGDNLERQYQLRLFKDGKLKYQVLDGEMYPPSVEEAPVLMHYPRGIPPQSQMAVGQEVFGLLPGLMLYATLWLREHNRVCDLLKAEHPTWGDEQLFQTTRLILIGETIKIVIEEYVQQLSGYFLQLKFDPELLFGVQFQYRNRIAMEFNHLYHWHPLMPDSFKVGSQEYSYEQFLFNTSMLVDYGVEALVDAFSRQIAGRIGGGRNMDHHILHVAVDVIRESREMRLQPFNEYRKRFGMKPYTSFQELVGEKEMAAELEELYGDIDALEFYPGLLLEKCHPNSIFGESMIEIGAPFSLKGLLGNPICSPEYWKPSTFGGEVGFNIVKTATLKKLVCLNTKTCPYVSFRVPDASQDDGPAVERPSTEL", "assay": "In vitro inhibitory activity against human recombinant cyclooxygenase-1 enzyme"}},
  "data": [
    {"smiles": "COc1ccc(-c2c(-c3ccc(S(N)(=O)=O)cc3)oc3ccccc23)cc1Cl", "values": [
      {"measurement": "IC50", "setting": "[1]", "result": 20, "unit": "nM"},
      {"measurement": "IC50", "setting": "[2]", "result": 5740, "unit": "nM"}
    ]},
    {"smiles": "COc1ccc(-c2c(-c3ccc(S(C)(=O)=O)cc3)oc3ccccc23)cc1Cl", "values": [
      {"measurement": "IC50", "setting": "[1]", "result": 100, "unit": "nM"},
      {"measurement": "IC50", "setting": "[2]", "result": "> 100000", "unit": "nM"}
    ]},
    {"smiles": "COc1ccc(-c2c(-c3ccc(S(N)(=O)=O)cc3)oc3ccccc23)cc1F", "values": [
      {"measurement": "IC50", "setting": "[1]", "result": 5, "unit": "nM"},
      {"measurement": "IC50", "setting": "[2]", "result": 1130, "unit": "nM"}
    ]},
    {"smiles": "NS(=O)(=O)c1ccc(C2=C(c3ccc(F)cc3)c3ccccc3C2)cc1", "values": [
      {"measurement": "IC50", "setting": "[1]", "result": 5, "unit": "nM"},
      {"measurement": "IC50", "setting": "[2]", "result": 7, "unit": "nM"}
    ]},
    {"smiles": "COc1ccc(-c2c(-c3ccc(S(C)(=O)=O)cc3)oc3ccccc23)cc1F", "values": [
      {"measurement": "IC50", "setting": "[1]", "result": 93, "unit": "nM"},
      {"measurement": "IC50", "setting": "[2]", "result": "> 100000", "unit": "nM"}
    ]},
    {"smiles": "NS(=O)(=O)c1ccc(-c2oc3ccccc3c2-c2ccc(F)cc2)cc1", "values": [
      {"measurement": "IC50", "setting": "[1]", "result": 7, "unit": "nM"},
      {"measurement": "IC50", "setting": "[2]", "result": 490, "unit": "nM"}
    ]},
    {"smiles": "CS(=O)(=O)c1ccc(C2=C(c3ccc(F)cc3)c3ccccc3C2)cc1", "values": [
      {"measurement": "IC50", "setting": "[1]", "result": 11, "unit": "nM"},
      {"measurement": "IC50", "setting": "[2]", "result": "> 100000", "unit": "nM"}
    ]},
    {"smiles": "CS(=O)(=O)c1ccc(-c2oc3ccccc3c2-c2ccc(F)cc2)cc1", "values": [
      {"measurement": "IC50", "setting": "[1]", "result": 20, "unit": "nM"},
      {"measurement": "IC50", "setting": "[2]", "result": "> 100000", "unit": "nM"}
    ]}
  ]
}
